In PMC5823406, “Vehicle development, pharmacokinetics and toxicity of the anti-invasive agent 4-fluoro-3’,4’,5’-trimethoxychalcone in rodents” (PLoS ONE, 2018):
“And” between values parts separate entries of the source, which are not always exact repeats. Identical values can stand only once. “Also recorded” adds a separate entry of the source.

How the values were obtained:
[1] = Solubility in vehicles, visual determination; type: physicochemical
Experimental: C16 has low aqueous solubility, which limits the choice of preclinical formulations for in vivo studies. In this work, thirteen vehicles were evaluated for their applicability in single-dose studies (Table 1). For commonly used systems (entries a-e) visual determination of solubility was conducted, while for the more complex systems solubility was assessed by laser nephelometry.

[2] = LogD, partition coefficient n-octanol/PBS; type: physicochemical; settings: pH 7.4, 100 μM
Excerpt: (§1) Table 3 In vitro physicochemical, stability and metabolism data. | column: Value

CYP 3A4 = CYP 3A4 (Homo sapiens, UniProt P08684); test: CYP inhibition 3A4 (BFC substrate); type: in vitro ADME; settings: 10 μM
Sequence of CYP 3A4 (P08684 whole entry): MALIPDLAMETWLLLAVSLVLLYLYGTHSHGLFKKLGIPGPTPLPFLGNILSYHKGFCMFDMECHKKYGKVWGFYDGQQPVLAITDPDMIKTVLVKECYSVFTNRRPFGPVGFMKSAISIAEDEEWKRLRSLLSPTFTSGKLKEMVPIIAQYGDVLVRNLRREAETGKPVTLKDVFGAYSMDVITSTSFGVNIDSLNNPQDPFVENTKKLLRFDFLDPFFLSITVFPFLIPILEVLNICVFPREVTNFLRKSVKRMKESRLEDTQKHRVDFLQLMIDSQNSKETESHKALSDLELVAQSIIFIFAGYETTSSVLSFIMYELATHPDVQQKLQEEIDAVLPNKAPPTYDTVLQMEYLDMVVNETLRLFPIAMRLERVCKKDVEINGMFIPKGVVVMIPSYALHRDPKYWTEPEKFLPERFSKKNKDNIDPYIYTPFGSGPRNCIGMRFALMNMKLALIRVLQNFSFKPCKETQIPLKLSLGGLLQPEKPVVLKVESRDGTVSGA
Excerpt: as §1

[3] = Whole blood C16 determination after 7-day dosing via medicated gels; type: in vivo, mouse; settings: for Blood concentration of C16: Average±SD
Experimental: On the evening of day 6, blood was collected via the tail vein for the 0, 100 and 300 mg/kg C16 cohorts for determination of the whole blood C16 level. On the morning of day 7, mice of the 0, 100 and 300 mg/kg C16 cohorts were anesthetized by IP injection with 250 mg/kg of Avertin (20 mL/kg, preparation see Section E in S1 File). Blood for C16 determination and hematological and biochemical analysis was collected via cardiac exsanguination (600 μL to 1 mL). Detailed analysis protocols are described below. Afterward, animals were sacrificed by cervical dislocation.
Blood samples (25 μL) were collected via the tail vein or cardiac puncture (last time point). Blood was pipetted into a tube with 25 μL heparinized water (1 μL of sodium heparin (1000 units/mL) + 24 μL water) within 30 seconds of collection. The sample was pipetted up and down five times, immediately frozen on dry ice, and stored at -60°C to -80°C until analysis.
E.C. Whole blood C16 levels
Table AA. Individual blood concentration (ng/mL) for C16 in cohorts on medicated gel .
Cohort and animal Evening Morning
BLOQ: below the limit of quantitation (0.5 ng/mL). Samples that were below the limit of quantification were not used in the calculation of
Table BB. […]

In the case of COc1cc(C(=O)/C=C/c2ccc(F)cc2)cc(OC)c1OC [C16, 4-fluoro-3’,4’,5’-trimethoxychalcone], the “Solubility of C16 in vehicle: Result” value ([1]; 10% (DMSO / Cremophor EL 1:1) / 90% Milli-Q water, 2 mg/mL) is reported as “Insoluble ^a”, the “Solubility of C16 in vehicle: Result” value ([1]; 10% DMSO in normal saline, 1 mg/mL) is reported as “Insoluble ^a” and the “Solubility of C16 in vehicle: Result” value ([1]; 20% DMSO / 10% (DMSO / Cremophor EL 1:1) / 70% Milli-Q water, 2 mg/mL) is reported as “Soluble ^a”. For the same molecule, the “Solubility of C16 in vehicle: Result” value ([1]; 50% DMSO in normal saline, 1 mg/mL) was “Insoluble ^a”, the “Solubility of C16 in vehicle: Result” value ([1]; DMSO, 10 mg/mL) was “highly soluble; also recorded: Soluble ^a” and the LogD [2] was 3.85. The “CYP inhibition 3A4 (BFC substrate)” value (CYP 3A4) was 27 % inhibition of control, the “Blood concentration of C16” value ([3]; 100 mg/kg cohort on medicated gel, Evening (day 6)) was 8.48 ± 2.28 ng/mL and the “Individual blood concentration of C16” value ([3]; 100 mg/kg cohort on medicated gel, Evening, animals 2-1 to 2-4) was 8.39 ng/mL and 5.39 ng/mL and 9.33 ng/mL and 10.8 ng/mL. The “Blood concentration of C16” value ([3]; 100 mg/kg cohort on medicated gel, Morning (day 7)) was 31.2 ± 26.0 ng/mL, the “Individual blood concentration of C16” value ([3]; 100 mg/kg cohort on medicated gel, Morning, animals 2-1 to 2-4) was 11.5 ng/mL and 6.14 ng/mL and 56.2 ng/mL and 50.8 ng/mL and the “Blood concentration of C16” value ([3]; 300 mg/kg cohort on medicated gel, Evening (day 6)) was 7.63 ± 5.07 ng/mL. For the same molecule, the “Individual blood concentration of C16” value ([3]; 300 mg/kg cohort on medicated gel, Evening, animals 3-1, 3-3, 3-4) was 3.51 ng/mL and 13.3 ng/mL and 6.09 ng/mL, the “Blood concentration of C16” value ([3]; 300 mg/kg cohort on medicated gel, Morning (day 7)) was 38.1 ± 27.8 ng/mL and the “Individual blood concentration of C16” value ([3]; 300 mg/kg cohort on medicated gel, Morning, animals 3-1 to 3-4) was 30.1 ng/mL and 21.6 ng/mL and 79.3 ng/mL and 21.3 ng/mL. For the same molecule, the “Whole blood C16 concentrations versus projected EC50” value ([3]; medicated gel, day 6 evening and day 7 morning) was “above its projected EC50”.
